Marks after values point to notes of the source that are not given here. Starred links: 1 amine or outer side, 2 acyl side, 3 side chain; linkers in the order of their positions; H or OH if unused. Non-standard residues stand in square brackets, D forms with d. Residues, ends and D or L forms follow the SMILES beside them. No end group written: not given here. X3 = N[C@@H](Cc1ccccc1)CN(CC(=O)[*:2])[*:1]
Assays:
[1] = target: T1, NOP receptor (NOP-RLuc/β-arrestin 2-RGFP) (Homo sapiens, UniProt P41146); assay: NOP/β-arrestin 2 interaction, BRET assay in whole cells; format: cell-based; conditions: for NOP/β-arrestin 2 pEC50 (CL95%): BRET, whole HEK293 cells co-expressing NOP-RLuc/β-arrestin 2-RGFP, 100,000 cells/well, room temperature, mean of five independent experiments in duplicate, 95% confidence limits; for NOP/β-arrestin 2 α ± sem (intrinsic activity): Emax of ligand / Emax of N/OFQ(1–13)-NH2, mean ± sem of five experiments in duplicate
T1 construct: expressed in transfected cells; host or cells: HEK293 (whole cells)
Protocol: (§1) For this study, human embryonic kidney (HEK293) cells, permanently co-expressing the different pairs of fusion proteins NOP-RLuc/Gβ1-RGFP and NOP-RLuc/β-arrestin 2-RGFP, and SH-SY5Y cells stably, co-expressing the different pairs of fusion proteins mu-RLuc/Gβ1-RGFP and mu-RLuc/β-arrestin 2-RGFP or delta-RLuc/Gβ1-RGFP and delta-RLuc/β-arrestin 2-RGFP, were used. Cells were prepared and cultured, as described previously.[19],[23] Cells were grown in Dulbecco’s modified Eagle’s medium (DMEM)/HAMS F12 (1:1) supplemented with 10% fetal bovine serum, penicillin G (100 units/mL), streptomycin (100 μg mL^–1), L-glutamine (2 mM), fungizone (1 μg mL^–1), geneticin (G418; 200 μg mL^–1), and hygromycin B (100 μg mL^–1) in a humidified atmosphere of 5% CO2 at 37 °C. For G protein experiments, enriched plasma membrane aliquots from transfected cells were prepared by differential centrifugation; cells were detached with phosphate buffered saline (PBS)/EDTA solution (1 mM, pH 7.4 NaOH), then, after 5 min 500g centrifugation, Dounce-homogenized (30 strokes) in cold homogenization buffer (tris(hydroxymethyl)aminomethane 5 mM, EGTA 1 mM, DTT 1 mM, pH 7.4 HCl) in the presence of sucrose (0.32 M). Three following centrifugations were performed at 10 min 1000g (4 °C), and the supernatants were kept. Two 20 min 24,000g (4 °C) subsequent centrifugations (the second in the absence of sucrose) were performed for separating enriched membranes that, after discarding the supernatant, were kept in ultrapure water at −80 °C.[67] The protein concentration in membrane preparations was determined using the QPRO-BCA kit (Cyanagen Srl, Bologna, IT) and the Ensight (PerkinElmer, Waltham, USA) in the spectrophotometer mode.
(§2) Luminescence in membranes was recorded in 96-well untreated white opaque microplates, while in whole cells, it was recorded in 96-well sterile poly-D-lysine-coated white opaque microplates (PerkinElmer, Waltham, MA, USA) using the luminometer Victor 2030 (PerkinElmer, Waltham, MA, USA). For the determination of receptor/G protein interactions, membranes (3 μg of protein) prepared from cells co-expressing NOP (or mu or delta)/RLuc and Gβ1/RGFP were added to wells in DPBS. For the determination of receptor/β-arrestin 2 interactions, cells co-expressing NOP (or mu or delta)/RLuc and β-arrestin 2/RGFP were plated 24 h before the experiment in poly-D-lysine-treated plates (100,000 cells/well). The cells were prepared for the experiment substituting the medium with PBS with MgCl2 (0.5 mM) and CaCl2 (0.9 mM). Coelenterazine at a final concentration of 5 μM was injected 15 min prior to reading the cell plate. Different concentrations of ligands in 20 μL of PBS–BSA 0.01% were added and incubated 5 min before reading luminescence. […] The BRET ratio was measured 15 min after agonist injection. All experiments were performed at room temperature.
(§3) The pharmacological terminology adopted in this paper is consistent with IUPHAR recommendations.[68] All data are expressed as the mean ± sem of five independent experiments made in duplicate. […] Ligand efficacy was expressed as intrinsic activity (α), calculated as the ratio between the Emax of the ligand and that of the standard agonist. Count per second (CPS) measured for the RGFP and RLuc light emitted using 510(10) and 460(25) filters (PerkinElmer, Waltham, MA), respectively, was used to calculate the BRET ratio. All data are expressed as the stimulated BRET ratio, that is, the ratio between CPS from RGFP and RLuc in the presence of ligands minus the BRET ratio in vehicle-treated wells. […] Concentration–response curves to agonists were fitted to the classical four-parameter logistic nonlinear regression model [drawing 1]
(§4) Curves fitting were performed using PRISM 6.0 (GraphPad Software In., San Diego, USA).

[2] = target: T2, NOP receptor (NOP-RLuc/Gβ1-RGFP) (Homo sapiens, UniProt P41146); assay: NOP/G protein interaction, BRET assay in membranes; format: biochemical; conditions: for NOP/G protein pEC50 (CL95%): BRET, membranes (3 μg protein) from HEK293 cells co-expressing NOP-RLuc/Gβ1-RGFP, room temperature, mean of five independent experiments in duplicate, 95% confidence limits; for NOP/G protein CR (concentration ratio): ratio between EC50 of the ligand and that of the standard agonist N/OFQ(1–13)-NH2
T2 construct: expressed in transfected cells; host or cells: HEK293 (enriched plasma membranes)
Protocol: as §1, §2, §3, §4

[3] = system: NOP receptor; assay: NOP bias factor, G protein vs β-arrestin 2 (Black–Leff operational model); conditions: for bias factor (CL95%), NOP: ΔΔlog(τ/KA) G protein minus β-arrestin 2, N/OFQ(1–13)-NH2 as standard unbiased ligand, positive = toward G protein, mean of at least five experiments; for BIAS FACTOR: supplementary CSV (molecular formula strings), repeats Tables 1–7 without confidence limits
Text: The concentration–response curves of each compound were fitted to the Black–Leff operational model, described by Nagi and Pineyro[70] [drawing 3] where [A] is the agonist concentration, the maximal response of the system is given by Em, n is a fitting parameter for the slope, the affinity of the agonist is represented by the equilibrium dissociation constant of the agonist–receptor complex (KA), and the efficacy of the agonist is defined by τ. τ and KA are descriptive parameters of intrinsic efficacy and binding affinity and may be directly obtained by fitting the experimental data to the operational equation and can be expressed as “transduction coefficients” log(τ/KA). The relative efficiency of agonists producing activation of any pathways can thus be quantified with a “normalized” transduction coefficient, namely Δlog(τ/KA). Finally, the bias factors were calculated as difference between Δlog(τ/KA) values for a given agonist between the pathways (G protein and β-arrestin 2) [drawing 4]
Bias factors are expressed as the mean of at least five independent experiments, and CL95% are indicated. Biased factor is considered to be statistically different from 0 when 0 is not included in CL95%. α values have been statistically analyzed with one-way analysis of variance (ANOVA) followed by the Dunnett post hoc test for multiple comparisons; P values less than 0.05 were considered to be statistically significant.

T1 sequence (P41146 whole entry): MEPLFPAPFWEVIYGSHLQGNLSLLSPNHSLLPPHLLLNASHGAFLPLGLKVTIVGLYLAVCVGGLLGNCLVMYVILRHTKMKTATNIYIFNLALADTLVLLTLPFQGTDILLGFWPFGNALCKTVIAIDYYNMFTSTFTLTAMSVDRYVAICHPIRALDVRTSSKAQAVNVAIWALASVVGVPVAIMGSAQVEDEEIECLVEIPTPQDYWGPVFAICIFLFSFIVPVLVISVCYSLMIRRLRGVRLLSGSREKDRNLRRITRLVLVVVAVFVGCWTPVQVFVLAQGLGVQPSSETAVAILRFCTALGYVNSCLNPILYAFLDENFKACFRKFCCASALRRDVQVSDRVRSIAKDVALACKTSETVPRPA
T2 sequence (P41146 whole entry): as above

Molecule	NOP/β-arrestin 2 pEC50 (CL95%) [1]	bias factor (CL95%), NOP [3]	BIAS FACTOR [3]	also measured
[Ala^8]N/OFQ(1–13)-NH2 (FGGFTGAAKSARK-NH2) [Compound 7]	inactive			NOP/G protein pEC50 (CL95%) [2]: Crc incomplete; NOP/G protein CR (concentration ratio) [2]: ∼1000
C[C@H](NC(=O)CNC(=O)[C@@H](NC(=O)[C@H](Cc1ccccc1)NC(=O)CNC(=O)CNC(=O)[C@@H](N)Cc1ccccc1)[C@@H](C)O)C(=O)N[C@H](CCCNC(=N)N)C(=O)N[C@@H](CCCCN)C(=O)N[C@@H](CO)C(=O)N[C@@H](C)C(=O)N[C@@H](CCCNC(=N)N)C(=O)N[C@@H](CCCCN)C(N)=O [Compound 16, [DArg^8]N/OFQ(1–13)-NH2]		0.26 (−0.25–0.77)		
[AC5C^7]N/OFQ-NH2 [Compound 37]		0.08 (−0.41–0.58)	0.08	
C[C@H](NC(=O)CNC(=O)[C@@H](NC(=O)[C@H](Cc1ccccc1)NC(=O)CNC(=O)CNC[C@@H](N)Cc1ccccc1)[C@@H](C)O)C(=O)N[C@@H](CCCNC(=N)N)C(=O)N[C@@H](CCCCN)C(=O)N[C@@H](CO)C(=O)N[C@@H](C)C(=O)N[C@@H](CCCNC(=N)N)C(=O)N[C@@H](CCCCN)C(N)=O [Compound 30, [Phe^1ψ(CH2–NH)Gly^2]N/OFQ(1–13)-NH2] (H-[X3]GFTGARKSARK-NH2)	Inactive			
[DThr^5]N/OFQ(1–13)-NH2 [Compound 14]	inactive			NOP/G protein pEC50 (CL95%) [2]: crc incomplete
C[C@H](NC(=O)CNC(=O)[C@@H](NC(=O)[C@H](Cc1ccccc1)NC(=O)CNC(=O)CNC(=O)[C@@H](N)Cc1ccccc1)[C@@H](C)O)C(=O)N[C@@H](CCCNC(=N)N)C(=O)N[C@@H](CCCCN)C(=O)N[C@@H](CO)C(=O)N[C@H](C)C(=O)N[C@@H](CCCNC(=N)N)C(=O)N[C@@H](CCCCN)C(N)=O [Compound 19, [DAla^11]N/OFQ(1–13)-NH2]		0.14 (−0.31–0.60)	0.14	
[Cys(X)^14]N/OFQ(1-14)-NH2 [Compound 49] (chain 1 FGGFTGARKSARKC; chain 2 KKKKKK) [(Lys)6 moiety]	8.22 (8.03-8.40)			NOP/G protein pEC50 (CL95%) [2]: 10.06 (9.79-10.34)
C[C@H](NC(=O)CNC(=O)[C@@H](NC(=O)[C@H](Cc1ccccc1)NC(=O)CNC(=O)CNC(=O)[C@@H](N)Cc1ccccc1)[C@@H](C)O)C(=O)N[C@@H](CCCNC(=N)N)C(=O)N[C@@H](CCCCN)C(=O)N[C@H](CO)C(=O)N[C@@H](C)C(=O)N[C@@H](CCCNC(=N)N)C(=O)N[C@@H](CCCCN)C(N)=O [Compound 18, [DSer^10]N/OFQ(1–13)-NH2]		–0.07 (−0.52–0.39)	-0.07	
C[C@H](NC(=O)CNC(=O)[C@@H](NC(=O)[C@H](Cc1ccccc1)NC(=O)CNC(=O)CNC(=O)[C@@H](N)Cc1ccccc1)[C@@H](C)O)C(=O)N[C@@H](CCCNC(=N)N)C(=O)N[C@@H](CCCCN)C(=O)N[C@@H](CO)C(=O)N[C@@H](C)C(=O)N[C@H](CCCNC(=N)N)C(=O)N[C@@H](CCCCN)C(N)=O [Compound 20, [DArg^12]N/OFQ(1–13)-NH2]		0.26 (−0.19–0.71)		
FGGWTGARKSARK-NH2 [Compound 24, [Trp^4]N/OFQ(1–13)-NH2]		0.11 (−0.43–0.65)	0.11	NOP/β-arrestin 2 α ± sem (intrinsic activity) [1]: 0.77 ± 0.03 ^a
[AC3C^7]N/OFQ-NH2 [Compound 36]		0.40 (−0.11–0.90)	0.40	
FAGFTGARKSARK-NH2 [Compound 2, [Ala^2]N/OFQ(1–13)-NH2]	inactive			NOP/G protein pEC50 (CL95%) [2]: 6.36 (5.89–6.83); NOP/G protein α ± sem (intrinsic activity) ([2]; Emax of ligand / Emax of N/OFQ(1–13)-NH2, mean ± sem of five experiments in duplicate): 0.54 ± 0.07 ^a; NOP/G protein CR (concentration ratio) [2]: 275
C[C@H](NC(=O)[C@H](CO)NC(=O)[C@H](CCCCN)NC(=O)[C@H](CCCNC(=N)N)NC(=O)[C@@H](C)NC(=O)CNC(=O)[C@@H](NC(=O)[C@H](Cc1ccccc1)NC(=O)CNC(=O)CNC(=O)[C@@H](N)Cc1ccccc1)[C@@H](C)O)C(=O)N[C@@H](CCCNC(=N)N)C(=O)N[C@@H](CCCCN)C(N)=O [Compound 15, [DAla^7]N/OFQ(1–13)-NH2]		0.21 (−0.28–0.70)	0.21	
[AC5C^11]N/OFQ-NH2 [Compound 38]		0.31 (−0.19–0.81)	0.31	
[D-Phe^3]N/OFQ(1–13)-NH2 (FG[dF]FTGARKSARK-NH2; N-terminus assumed; SMILES C[C@H](NC(=O)CNC(=O)[C@@H](NC(=O)[C@H](Cc1ccccc1)NC(=O)[C@@H](Cc1ccccc1)NC(=O)CNC(=O)[C@@H](N)Cc1ccccc1)[C@@H](C)O)C(=O)N[C@@H](CCCNC(=N)N)C(=O)N[C@@H](CCCCN)C(=O)N[C@@H](CO)C(=O)N[C@@H](C)C(=O)N[C@@H](CCCNC(=N)N)C(=O)N[C@@H](CCCCN)C(N)=O) [Compound 25]	inactive			NOP/G protein pEC50 (CL95%) [2]: inactive
C[C@H](NC(=O)CNC(=O)[C@@H](NC(=O)[C@H](Cc1ccccc1)NC(=O)CNC(=O)CNC(=O)[C@@H](N)CC1CCCCC1)[C@@H](C)O)C(=O)N[C@@H](CCCNC(=N)N)C(=O)N[C@@H](CCCCN)C(=O)N[C@@H](CO)C(=O)N[C@@H](C)C(=O)N[C@@H](CCCNC(=N)N)C(=O)N[C@@H](CCCCN)C(N)=O [Compound 22, [Cha^1]N/OFQ(1–13)-NH2]		0.20 (−0.36–0.76)	0.20	NOP/β-arrestin 2 α ± sem (intrinsic activity) [1]: 1.03 ± 0.05
C[C@H](NC(=O)CNC(=O)[C@@H](NC(=O)[C@H](Cc1ccccc1)NC(=O)CNC(=O)CNC(=O)[C@@H](N)Cc1ccccc1)[C@@H](C)O)C(=O)N[C@@H](CCCNC(=N)N)C(=O)N[C@@H](CCCCN)C(=O)N[C@@H](CO)C(=O)N[C@@H](C)C(=O)N[C@@H](CCCNC(=N)N)C(=O)N[C@H](CCCCN)C(N)=O [Compound 21, [DLys^13]N/OFQ(1–13)-NH2]		0.03 (−0.42–0.48)	0.03	
[Aib^11]N/OFQ-NH2 [Compound 35]		0.29 (−0.20–0.79)	0.29	

Reference: publication PMC8011926 (Journal of Medicinal Chemistry, 2020)
